US8486945B2, “Heterocyclic inhibitors of an Hh-signal cascade, medicinal compositions based thereon and methods for treating diseases caused by the aberrant activity of an Hh-signal system” (priority 2007, dated 2013)

Tested on: Hh-signalling cascade
Experiment: Inhibition of SHh-induced alkaline phosphatase in C3H10T1/2 cells (Hh-signalling cascade inhibition)
Format: cell-based
Settings: Mus musculus, C3H 10T1/2, half maximal inhibition of SHh (0.3 μg/ml) stimulation of cell alkaline phosphatase
Description: C3H10T1/2 Cells were used for identification of inhibitors of SHh-protein signaling cascade. SHh-protein activates C3H10T1/2 cells, that leads to their osteogenic differentiation [1) Kinto N., Iwamoto M., Enomoto-Iwamoto M., Noji S., Ohuchi H., Yoshioka H., Kataoka H., Wada Y., Yuhao G., Takahashi H. E., Yoshiki S., Yamaguchi A. Fibroblasts expressing Sonic hedgehog induce osteoblast differentiation and ectopic bone formation. FEBS Lett. 1997; 404(2-3): 319-23. 2) Spinella-Jaegle S., Rawadi G., Kawai S., Gallea S., Faucheu C., Mollat P., Courtois B., Bergaud B., Ramez V., Blanchet A. M., Adelmant G., Baron R., Roman-Roman S. Sonic hedgehog increases the commitment of pluripotent mesenchymal cells into the osteoblastic lineage and abolishes adipocytic differentiation. J. Cell Sci. 2001; 114(Pt 11): 2085-94] and, in particular, to expression enhancement of alkaline phosphatase enzyme.
The cells were cultivated in DMEM medium with 10% embryonal calfish serum in incubator at 37° C., 100% humidity and 5% CO2 content. The cells were placed in 384-well plates and left for night. On the next day the tested compounds in concentration of 10 μM were added to the cells, incubated for 30 min, then recombinant (R & D Systems, USA) SHh protein in concentration of 0.3 μg/ml was added and incubation was continued for 3 days. Cells with DMSO instead of a test compound and cells without SHh protein were used as test control. For determination of the cell alkaline phosphatase activity the cells were lysed in the buffer containing 0.2% Triton-X100, lisates were incubated together with proluminescent substrate CSPD (Applied Biosystems, USA) and the resultant luminescence was measured using reader VICTOR^2V (PerkinElmer, USA).
The ability of the compounds to inhibit Hh-signalling cascade was determined using C3H10T1/2 cells in 384-well plates as described in example 1. The compounds were added in triplicates in various concentrations, prepared by multiple dilution of starting solutions (concentration dependences of cell alkaline phosphatase inhibition induced by the addition of tested compounds are shown in FIG. 1). Activity of the compounds was characterized by their concentrations produced half maximal inhibition of stimulation of cell alkaline phosphatase SHh (IC50).

| IC50 | SMILES |
| --- | --- |
| < 5 µM | COc1ccc(C(=O)Nc2ccc(-c3cn4ccccc4n3)cc2)cc1 [III-1006, N-(4-(Imidazo[1,2-a]pyridin-2-yl)phenyl)-4-methoxybenzamide] |
| > 50 µM | CC(=O)Nc1ccc(-c2cn3ccccc3n2)cc1 [III-1007, N-(4-(Imidazo[1,2-a]pyridin-2-yl)phenyl)acetamide] |
| < 5 µM | Cc1cccn2cc(-c3ccc(NC(=O)Cc4ccccc4)cc3)nc12 [III-1013, N-[4-(8-Methylimidazo[1,2-a]pyridin-2-yl)phenyl]-2-phenylacetamide] |
| < 0.5 µM | O=C(Nc1cccc(-c2cn3ccccc3n2)c1)c1ccc(F)cc1 [III-1015, 4-Fluoro-N-(3-(imidazo[1,2-a]pyridin-2-yl)phenyl)benzamide] |
| < 0.5 µM | COc1ccc(C(=O)Nc2cccc(-c3cn4ccccc4n3)c2)cc1 [III-1018, N-(3-(Imidazo[1,2-a]pyridin-2-yl)phenyl)-4-methoxybenzamide] |
| < 0.5 µM | COc1ccc(C(=O)Nc2cccc(-c3cn4c(C)cccc4n3)c2)cc1 [III-1019, 4-Methoxy-N-[3-(5-methylimidazo[1,2-a]pyridin-2-yl)phenyl]benzamide] |
| < 0.5 µM | Cc1nc(-c2ccccc2)sc1C(=O)Nc1cccc(-c2cn3ccccc3n2)c1 [III-1030, 4-Methyl-2-phenylthiazol-5-carboxylic acid [3-(imidazo[1,2-a]pyridin-2-yl)phenyl]amide] |
| < 50 µM | O=C(Nc1ccc(-c2cn3cccnc3n2)cc1)C1CCCC1 [IV-1002, Cyclopentanecarboxylic acid (4-imidazo[1,2-a]pyrimidin-2-ylphenyl)amide] |
| < 0.5 µM | COc1ccccc1C(=O)Nc1ccc(-c2cn3cccnc3n2)cc1 [IV-1004, N-(4-(Imidazo[1,2-a]pyrimidin-2-yl)phenyl)-2-methoxybenzamide] |

The remaining lines, values behind:

| SMILES | IC50 |
| --- | --- |
| CCn1c(C(=O)N2CCC(C(=O)N3CCN(c4ccccc4)CC3)CC2)cc2sccc21 [V-1008, (4-Ethyl-4H-thieno[3,2-b]pyrrol-5-yl)[4-(4-phenyl-piperazine-1-carbonyl)piperidine-1-yl]methanone] | < 50 µM |
| O=C(NCc1ccccn1)C1CCN(C(=O)c2cc3sccc3n2Cc2ccc(F)cc2F)CC1 [V-1030, 1-[4-(2,4-Difluorobenzyl)-4H-thieno[3,2-b]pyrrole-5-carbonyl]piperidine-4-carboxylic acid [(pyridin-2-yl)methyl]amide] | < 5 µM |
| O=C(NCc1cccnc1)C1CCN(C(=O)c2cc3sccc3n2Cc2ccc(F)cc2)CC1 [V-1031] | < 5 µM |
| CCN(CC)CCCNC(=O)C1CCN(C(=O)c2cc3sccc3n2Cc2ccc(F)cc2)CC1 [V-1032, 1-[4-(4-Fluorobenzyl)-4H-thieno[3,2-b]pyrrole-5-carbonyl]piperidine-4-carboxylic acid 3-(diethylamino)propylamide] | < 0.5 µM |
| Cc1ccc(CNC(=O)C2CCN(C(=O)c3cc4sccc4n3Cc3ccc(F)cc3)CC2)cc1 [V-1033, 1-[4-(4-Fluorobenzyl)-4H-thieno[3,2-b]pyrrole-5-carbonyl]piperidine-4-carboxylic acid [(4-methylphenyl)methyl]amide] | < 0.5 µM |
| Cc1ccc(NC(=O)C2CCN(C(=O)c3cc4sccc4n3Cc3ccc(F)cc3)CC2)c(C)c1 [V-1034, 1-[4-(4-Fluorobenzyl)-4H-thieno[3,2-b]pyrrole-5-carbonyl]piperidine-4-carboxylic acid (2,4-dimethylphenyl)amide] | < 0.5 µM |
| Cc1ccc(NC(=O)C2CCN(C(=O)c3cc4sccc4n3Cc3ccc(F)cc3)CC2)cc1C [V-1035, 1-[4-(4-Fluorobenzyl)-4H-thieno[3,2-b]pyrrole-5-carbonyl]piperidine-4-carboxylic acid (3,4-dimethylphenyl)amide] | < 0.5 µM |
| COCCNC(=O)C1CCN(C(=O)c2cc3sccc3n2Cc2ccc(F)cc2)CC1 [V-1036, 1-[4-(4-Fluorobenzyl)-4H-thieno[3,2-b]pyrrole-5-carbonyl]piperidine-4-carboxylic acid (2-methoxyethyl)amide] | < 0.5 µM |
| O=C(NCc1ccc(F)cc1)C1CCN(C(=O)c2cc3sccc3n2Cc2ccc(F)cc2)CC1 [V-1037, 1-[4-(4-Fluorobenzyl)-4H-thieno[3,2-b]pyrrole-5-carbonyl]piperidine-4-carboxylic acid [(4-fluorophenyl)methyl]amide] | < 50 µM |
| CCN1CCCC1CNC(=O)C1CCN(C(=O)c2cc3sccc3n2Cc2ccc(F)cc2)CC1 (stereo not drawn) [V-1038, 1-[4-(4-Fluorobenzyl)-4H-thieno[3,2-b]pyrrole-5-carbonyl]piperidine-4-carboxylic acid [(1-ethylpyrrolidin-2-yl)methyl]amide] | < 0.5 µM |
| CCOCCCNC(=O)C1CCN(C(=O)c2cc3sccc3n2Cc2ccc(F)cc2)CC1 [V-1039, 1-[4-(4-Fluorobenzyl)-4H-thieno[3,2-b]pyrrole-5-carbonyl]piperidine-4-carboxylic acid (3-ethoxypropyl)amide] | < 0.5 µM |
| COCCCNC(=O)C1CCN(C(=O)c2cc3sccc3n2Cc2ccc(F)cc2)CC1 [V-1040, 1-[4-(4-Fluorobenzyl)-4H-thieno[3,2-b]pyrrole-5-carbonyl]piperidine-4-carboxylic acid (3-methoxypropyl)amide] | < 0.5 µM |
| O=C(NCCN1CCOCC1)C1CCN(C(=O)c2cc3sccc3n2Cc2ccc(F)cc2F)CC1 [V-1041, 1-[4-(2,4-Difluorobenzyl)-4H-thieno[3,2-b]pyrrole-5-carbonyl]piperidine-4-carboxylic acid (2-N-morpholinoethyl)amide] | < 0.5 µM |
| O=C(NCCCN1CCCC1)C1CCN(C(=O)c2cc3sccc3n2Cc2ccc(F)cc2)CC1 [V-1042, 1-[4-(4-Fluorobenzyl)-4H-thieno[3,2-b]pyrrole-5-carbonyl]piperidine-4-carboxylic acid (3-N-pyrrolidinopropyl)amide] | < 0.5 µM |
| O=C(NCc1ccccn1)C1CCN(C(=O)c2cc3sccc3n2Cc2ccc(Cl)cc2)CC1 [V-1045, 1-[4-(4-Chlorobenzyl)-4H-thieno[3,2-b]pyrrole-5-carbonyl]piperidine-4-carboxylic acid [(pyridin-2-yl)methyl]amide] | < 5 µM |
| O=C(NCC1CCCO1)C1CCN(C(=O)c2cc3sccc3n2Cc2ccc(Cl)cc2)CC1 (stereo not drawn) [V-1046, 1-[4-(4-Chlorobenzyl)-4H-thieno[3,2-b]pyrrole-5-carbonyl]piperidine-4-carboxylic acid [(tetrahydrofuran-2-yl)methyl]amide] | < 5 µM |
| COCCCNC(=O)C1CCN(C(=O)c2cc3sccc3n2Cc2ccc(Cl)cc2)CC1 [V-1047, 1-[4-(4-Chlorobenzyl)-4H-thieno[3,2-b]pyrrole-5-carbonyl]piperidine-4-carboxylic acid (3-methoxypropyl)amide] | < 0.5 µM |
| CN1CCN(C(=O)C2CCN(C(=O)c3cc4sccc4n3Cc3ccc(F)cc3)CC2)CC1 [V-1048, [4-(4-Fluorobenzyl)-4H-thieno[3,2-b]pyrrol-5-yl]-[4-(4-methylpiperazine-1-carbonyl)piperidin-1-yl]methanone] | < 0.5 µM |
| CN1CCN(C(=O)C2CCN(C(=O)c3cc4sccc4n3Cc3cccc(Cl)c3)CC2)CC1 [V-1049, [4-(3-Chlorobenzyl)-4H-thieno[3,2-b]pyrrol-5-yl]-[4-(4-methylpiperazine-1-carbonyl)piperidin-1-yl]methanone] | < 0.5 µM |
| CN1CCN(C(=O)C2CCN(C(=O)c3cc4sccc4n3Cc3cccc(F)c3)CC2)CC1 [V-1050, [4-(3-Fluorobenzyl)-4H-thieno[3,2-b]pyrrol-5-yl]-[4-(4-methylpiperazine-1-carbonyl)piperidin-1-yl]methanone] | < 0.5 µM |
| CN1CCN(C(=O)C2CCN(C(=O)c3cc4sccc4n3Cc3ccccc3F)CC2)CC1 [V-1051, [4-(2-Fluorobenzyl)-4H-thieno[3,2-b]pyrrol-5-yl]-[4-(4-methylpiperazine-1-carbonyl)piperidin-1-yl]methanone] | < 0.5 µM |
| CN1CCN(C(=O)C2CCN(C(=O)c3cc4sccc4n3Cc3ccccc3Cl)CC2)CC1 [V-1052, [4-(2-Chlorobenzyl)-4H-thieno[3,2-b]pyrrol-5-yl]-[4-(4-methylpiperazine-1-carbonyl)piperidin-1-yl]methanone] | < 0.5 µM |

Same assay, conditions: half maximal inhibition of SHh (0.3 μg/ml) stimulation of cell alkaline phosphatase

| IC50 | SMILES |
| --- | --- |
| < 5 µM | O=C(c1cc2sccc2n1Cc1ccc(Cl)cc1)N1CCC(C(=O)N2CCCC2)CC1 [V-1027, [4-(4-Chlorobenzyl)-4H-thieno[3,2-b]pyrrol-5-yl]-[4-(pyrrolidin-1-carbonyl)piperidin-1-yl]methanone] |
| < 0.5 µM | O=C(c1cc2sccc2n1Cc1ccc(Cl)cc1)N1CCC(C(=O)N2CCCC2)CC1 [V-1044, 1-[4-(4-Chlorobenzyl)-4H-thieno[3,2-b]pyrrole-5-carbonyl]piperidine-4-carboxylic acid tetramethylenamide] |
